Laboratory results from patent publication US8012983B2, “Substituted triazolopyrazines useful for the treatment of degenerative and inflammatory diseases” (Galapagos NV, priority 2008, dated 2011).

System: MMP13 expression in SW1353 chondrosarcoma cell line
Assay: MMP13 assay: IL-1/OSM-driven MMP13 expression in SW1353 cells (MMP13 ELISA)
Format: cell-based
Settings: Homo sapiens, IL-1β and OSM, 48 hr
Description: The protocol of the MMP13 ELISA is described in section 4.1, then testing of compounds on release of IL-1/OSM-driven MMP13 expression in SW1353 chondrosarcoma cell line is described in section 4.2.
A 384 well format ELISA for measurement of MMP13 was developed. Various primary antibodies were tested, as well as various ELISA protocols. The following protocol is developed and validated to measure MMP13 levels in supernatant of cell cultures in 384 well plates.
Black maxisorb 384 well plates (Nunc 460518) are coated with 35 μl of a buffered solution containing 1.5 μg/mL anti-MMP13 antibody MAB511 (R&D systems). The antibody is diluted in carbonate-bicarbonate coating buffer (1.59 g Na2CO3 (Sigma S-7795) and 2.93 g NaHCO3 (Sigma S-5761) in 1 L MilliQ water, adjusted to pH 9.6). After overnight incubation at 4° C., wells are washed twice with 100 μL PBST (80 g NaCl, 2 g KCl (Sigma), 11.5 g Na2HPO4.7H2O and 2 g KH2PO4 in 10 L milliQ water; pH 7.4+0.05% Tween-20 (Sigma)) and blocked with 100 μL/well blocking buffer (5% non fat dry milk in PBS). After overnight incubation at 4° C., wells are washed twice with 100 μL PBST. The PBST is removed and 35 μL of sample is transferred to the ELISA plates. After 4 hr incubation at RT, plates are washed twice with PBST and incubated for 1 hr at 37° C. with 35 μL/well 1.5 mM APMA solution (a 10 mM APMA stock solution is prepared one day before (35.18 mg APMA (Sigma A-9563) in 10 mL 0.1M NaOH (Merck 1.06469.1000) and stored at 4° C. Before use, the 10 mM APMA stock solution is diluted to 1.5 mM in 1×APMA buffer (10× APMA buffer: 500 mM Tris (Roche 708976), 50 mM CaCl2 (Sigma C-5080), […] ZnCl2 (Sigma Z-0173), 1.5 M NaCl (Calbiochem 567441), 0.5% Brij35 (Sigma 430 AG-6) and adjust to pH 7.0). After activation of MMP13 by APMA, plates are washed again two times with 100 μL PBST/well and 35 μL of substrate solution is added to each well. Substrate solution is prepared as follows: OmniMMP Fluorescent substrate (Biomol P-126) stock solution (2 mM in DMSO, stored at −20° C.) is diluted in 1× OmniMMP buffer (10× OmniMMP buffer: 500 mM Hepes (Sigma H4034), 100 mM CaCl2 (Sigma C5080), 0.5% Brij35 (Sigma 430 AG-6; adjusted to pH 7.0) to a final concentration of 0.01 mM. After an overnight incubation at 37° C., the active MMP13 in the sample has cleaved the substrate and released fluorescence. Readout is performed on the EnVision (Perkin Elmer) using 320 nm excitation/405 nm emission filters.
Human chondrosarcoma cell line SW1353 was acquired from ATCC and grown in DMEM supplemented with 10% heat-inactivated FBS and 1× penicillin/streptomycin (Invitrogen) in a humidified 5% CO2 incubator at 37° C. Aliquots of the cells were frozen and cryopreserved in liquid nitrogen. Starting from a cryopreserved aliquot, cells are further grown by sub-culturing at a 1/5-1/8 ratio twice a week by trypsinisation.
Starting from the compound master stocks (all at 10 mM concentration in 100% DMSO) a 3-fold serial dilution is made in 96-well plates in 100% DMSO. Then, plates are futher diluted 50-fold in M199 medium supplemented with 1% heat-inactivated FBS to obtain an intermediate work stock.
At day 1, SW1353 cells are seeded in 96-well plates (flat bottom, tissue culture treated, Greiner) at a density of 15000 cells/well in 120 μL growth medium. The next day, 15 μL compound out of the intermediate work stock is added. After an incubation period of 60 minutes, which allows the compounds to equilibrate and enter the cells, cells are stimulated with a mixture of IL-1β and OSM, added in a volume of 15 μL to obtain final concentrations of 1 ng/ml IL-1β and 25 ng/ml OSM. For that, stocks of IL-1 (10 μg/ml) and OSM (25 μg/ml) (both PeproTech) were diluted to 10 ng/ml and 250 ng/ml respectively, in M199 medium supplemented with 1% FBS. After incubation for 48 hr, the cell supernatant was harvested and an appropriate dilution was processed in the MMP13 ELISA as described above, delivering raw data (RFU: relative fluorescence units). […]

Question: With `CC(C)(C)N1C[C@@H]2C[C@H]1CN2c1ccc(Nc2ncc(-c3ccc4c(c3)CNC4=O)n3ncnc23)cc1` [Compound 16, 5-{8-(4-((1S,4S)-5-tert-butyl-2,5-diazabicyclo[2.2.1]heptan-2-yl)phenylamino)-[1,2,4]triazolo-[1,5-a]pyrazin-5-yl}-2,3-dihydro-isoindol-1-one] as the compound, how does the IC50 read?
Answer: > 1000 nM
